Measurements: US20260130896A1, “COMPOSITIONS AND METHODS FOR DELIVERY OF OPHTHALMOLOGICAL ACTIVES” (ADS Therapeutics LLC, priority 2023, published 2026)

Assays:
Assay type in all cases: physicochemical
[1] = Solubility of aceclidine in exemplary formulations; conditions: for Aceclidine solubility: Unsaturated
Description: An appropriate amount of aceclidine was dissolved in various MCT (to obtain a mixed solution), then SFA (F6H8 or F4H5) was added to the solution in the indicated proportions and the solution was mixed well with magnetic stirring.

[2] = Solubility of aceclidine in F6H8, MCT and 10% MCT in F6H8 by GC; conditions: GC method
Description: 5 mg aceclidine was added into a PP tube, 1 ml of F6H8 was added, the PP tube was shaken for about 5 minutes and aceclidine was completely dissolved in the solution. Further 18 mg aceclidine was added, and shaking was continued until no insoluble substance was found. […] The phenomenon disappeared after re-shaking.
The above formulations were centrifuged and the supernatants filtered through 0.45 micron filters without further dilution. One sample was prepared from each solvent for GC analysis.
The GC protocols and parameters are listed below:
Injection Volume: 0.5 ul (Direct injection)
Detector Temp (FID): 300° C.
Gradient: 70° C. (hold 2 min)→12° C./min→280° C. (hold 7 min)
20 mg aceclidine was added into a PP tube, and 1 ml MCT was added. The PP tube was shaken for about 5 minutes and the resulting solution became clear. Further 40 mg of aceclidine was added. The PP tube was shaken again. […] The phenomenon disappeared after re-shaking. A small sample was taken and solubility was determined according to the GC method described in Example 17.
Sample preparation was prepared and analyzed based on the protocols described in Examples 17 and 18.

[3] = Stability of aceclidine in F6H8; conditions: dissolved in F6H8, 25° C., 1, 3, 6, 9 and 12 months
Description: Aceclidine is dissolved in F6H8 as described in Example 17. The level of aceclidine is measured by the GC method at 25° C. at 1, 3, 6, 9 and 12 months. The aceclidine in the formulation is defined as stable if the level is maintained between 90-110% of the original level.

[4] = Solubility of Acoltremon (AR-15512) in exemplary formulations
Text: (§1) Time (min) % Mobile Phase A % Mobile Phase B

[5] = Solubility of axitinib in exemplary formulations
Description: Mobile phase A: 0.05% TFA-H2O
Mobile phase B: 0.05% TFA-Acetonitrile
Flow rate: 1.0 mL/min Wavelength: 362 nm
Injection volume: 30 μL Column temperature: 40° C.

[6] = Solubility of lifitegrast in exemplary formulations
Description: Chromatographic column: Agilent ZORBAX SB-C18, 4.6*250 mm, 5 μm Mobile phase A: 0.1% Phosphoric Acid-H2O Mobile phase B: Acetonitrile Flow rate: 1.0 mL/min Wavelength: UV/220 nm Injection volume: 10 μL Column temperature: 35° C.
Since the auxiliary peaks of MCM and MC8-2 overlapped with the main peaks in the above gradient method, the analytical methods for MCM and MC8-2 were adjusted as follows: Chromatographic column: Agilent ZORBAX SB-C18, 4.6*250 mm, 5 μm Mobile phase A: 0.1% Phosphoric Acid-H2O Mobile phase B: Acetonitrile Flow rate: 1.0 mL/min Wavelength: UV/220 nm Injection volume: 10 μL Column temperature: 35° C.

[7] = Solubility of lotilaner in exemplary formulations
Text: as §1

[8] = Solubility of ivermectin (CBT-273) in exemplary formulations
Description: The obtained mixture was filtered through 0.22 μm filter and the filtrated solution was analyzed by GC.
Shim-pack GIST C18 5 μm, 4.6 (ID) mm×250 mm (L), 5 μm Mobile phase: Acetonitrile: Methanol: Water=55:35:10 (v:v:v) Flow rate: 1.0 mL/min Wavelength: 214 nm Injection volume: 10 μL Column temperature: 45° C.

Compound: CC(=O)OC1CN2CCC1CC2 (stereo not shown) [Aceclidine, aceclidine]
- aceclidine concentration that is stable and uniform ([1]; 10% Captex 355/F6H8, RT): 1.5%-2% is stable
- Aceclidine solubility ([1]; 10% Captex 355/F6H8, RT): > 21.4(Unsaturated), mg/g
- aceclidine concentration that is stable and uniform ([1]; 10% Captex 8000/F6H8, RT): 2% is stable and
- Aceclidine solubility ([1]; 10% Captex 8000/F6H8, RT): > 17.0(Unsaturated), mg/g
- Aceclidine solubility ([1]; 10% MCT/90% F6H8, RT): > 17.0(Unsaturated) mg/g
- Aceclidine solubility ([1]; 100% Captex 300, RT): > 66.7(Unsaturated) mg/g
- Aceclidine solubility ([1]; 100% Captex 355, RT): > 203.4(Unsaturated) mg/g
- Aceclidine solubility ([1]; 100% Captex 8000, RT): > 164.0(Unsaturated) mg/g
- Aceclidine solubility ([1]; 100% MCT, RT): > 320.9(Unsaturated) mg/g
- solubility of aceclidine in 10% MCT in F6H8 [2]: around 2 % (w/v)
- solubility of aceclidine in F6H8 [2]: around 1.5 % (w/v)
- solubility of aceclidine in MCT [2]: around 5 % (w/v)
- stability (level maintained between 90-110% of the original level) [3]: remains stable

Compound: COc1ccc(NC(=O)[C@@H]2C[C@H](C)CC[C@H]2C(C)C)cc1 [Acoltremon (AR-15512), (1R,2S,5R)—N-(4-methoxyphenyl)-5-methyl-2-(1-methylethyl) cyclohexanecarboxamide]
- Acoltremon (AR-15512) Saturated solubility ([4]; 10% Captex 170/90% F4H5, RT): 0.21 mg/g
- Acoltremon (AR-15512) Saturated solubility ([4]; 10% Captex 200P / 90% F4H5, RT): 0.36 mg/g
- Acoltremon (AR-15512) Saturated solubility ([4]; 10% Captex 200P/90% F6H8, RT): 0.36 mg/g
- Acoltremon (AR-15512) Saturated solubility ([4]; 10% Captex 355/90% F6H8, RT): 0.7 mg/g
- Acoltremon (AR-15512) Saturated solubility ([4]; 10% MCT/90% F4H5, RT): 0.28 mg/g
- Acoltremon (AR-15512) Saturated solubility ([4]; 10% MCT/90% F6H8, RT): 0.29 mg/g
- Acoltremon (AR-15512) Saturated solubility ([4]; 20% Captex 170/80% F4H5, RT): 0.42 mg/g
- Acoltremon (AR-15512) Saturated solubility ([4]; 20% Captex 170/80% F6H8, RT): 0.43 mg/g
- Acoltremon (AR-15512) Saturated solubility ([4]; 20% Captex 200P / 80% F4H5, RT): 0.66 mg/g
- Acoltremon (AR-15512) Saturated solubility ([4]; 20% Captex 200P / 80% F6H8, RT): 0.53 mg/g
- Acoltremon (AR-15512) Saturated solubility ([4]; 20% MCT/80% F4H5, RT): 0.55 mg/g
- Acoltremon (AR-15512) Saturated solubility ([4]; 20% MCT/80% F6H8, RT): 0.55 mg/g
- Acoltremon (AR-15512) Saturated solubility ([4]; 100% Captex 170, RT): 2.03 mg/g
- Acoltremon (AR-15512) Saturated solubility ([4]; 100% Captex 200P, RT): 3.21 mg/g
- Acoltremon (AR-15512) Saturated solubility ([4]; 100% Captex 8000, RT): 1.84 mg/g
- Acoltremon (AR-15512) Saturated solubility ([4]; 100% F4H5, RT): 0.064 mg/g
- Acoltremon (AR-15512) Saturated solubility ([4]; 100% F6H8, RT): 0.055 mg/g
- Acoltremon (AR-15512) Saturated solubility ([4]; 100% MCT, RT): 3.12 mg/g

Compound: CNC(=O)c1ccccc1Sc1ccc2c(/C=C/c3ccccn3)n[nH]c2c1 [Axitinib]
- Axitinib Saturated solubility ([5]; 100% Captex 300, RT): 0.022 mg/g
- Axitinib Saturated solubility ([5]; 100% Captex 355, RT): 0.03 mg/g
- Axitinib Saturated solubility ([5]; 100% Captex 8000, RT): 0.1 mg/g

Compound: CS(=O)(=O)c1cccc(C[C@H](NC(=O)c2c(Cl)cc3c(c2Cl)CCN(C(=O)c2ccc4ccoc4c2)C3)C(=O)O)c1 [Lifitegrast, lifitegrast]
- Lifitegrast Saturated solubility ([6]; 10% MCT/90% F6H8, RT): 0 mg/g
- Lifitegrast Saturated solubility ([6]; 20% MCT/80% F6H8, RT): 0 mg/g
- Lifitegrast Saturated solubility ([6]; 50% MCT/50% F6H8, RT): 0.004 mg/g
- Lifitegrast Saturated solubility ([6]; 100% Captex 300, RT): 0.28 mg/g
- Lifitegrast Saturated solubility ([6]; 100% Captex 355, RT): 0.27 mg/g
- Lifitegrast Saturated solubility ([6]; 100% Captex 8000, RT): 0.56 mg/g

Compound: Cc1cc(C2=NO[C@@](c3cc(Cl)c(Cl)c(Cl)c3)(C(F)(F)F)C2)sc1C(=O)NCC(=O)NCC(F)(F)F [Lotilaner, lotilaner]
- Lotilaner solubility ([7]; 10% Captex 300/90% F6H8, RT): 1.21 mg/g
- Lotilaner solubility ([7]; 10% Captex 8000/90% F6H8, RT): 3.47 mg/g
- Lotilaner solubility ([7]; 10% MCT/90% F6H8, RT): 2.7 mg/g
- Lotilaner solubility ([7]; 20% MCT/80% F6H8, RT): 5.42 mg/g
- Lotilaner solubility ([7]; 100% Captex 300 (Unsaturated), RT): > 11.32 mg/g
- Lotilaner solubility ([7]; 100% Captex 8000 (Unsaturated), RT): > 29.04 mg/g
- Lotilaner solubility ([7]; 100% MCT (Unsaturated), RT): > 25.47 mg/g

Compound: ivermectin [Ivermectin (CBT-273)]
- Ivermectin (CBT-273) Saturated solubility ([8]; 10% Captex 300/90% F6H8, RT): 1.35 mg/g
- Ivermectin (CBT-273) Saturated solubility ([8]; 10% Captex 355/90% F4H5, RT): 0.61 mg/g
- Ivermectin (CBT-273) Saturated solubility ([8]; 10% Captex 355/90% F6H8, RT): 0.46 mg/g
- Ivermectin (CBT-273) Saturated solubility ([8]; 10% Captex 8000/90% F6H8, RT): 1.36 mg/g
- Ivermectin (CBT-273) Saturated solubility ([8]; 20% Captex 355/80% F4H5, RT): 3.03 mg/g
- Ivermectin (CBT-273) Saturated solubility ([8]; 20% Captex 355/80% F6H8, RT): 3.87 mg/g
- Ivermectin (CBT-273) Saturated solubility ([8]; 100% Captex 355, RT): 26.51 mg/g
- Ivermectin (CBT-273) Saturated solubility ([8]; 100% Captex 8000, RT): 34.62 mg/g
- Ivermectin (CBT-273) Saturated solubility ([8]; 100% Captex ® 300, RT): 27.91 mg/g
- Ivermectin (CBT-273) Saturated solubility ([8]; 100% F4H5, RT): 0.12 mg/g
- Ivermectin (CBT-273) Saturated solubility ([8]; 100% F6H8, RT): 0.04 mg/g
